From patent US10195156B2, “Compounds and compositions for intracellular delivery of agents” (ModernaTX, Inc., priority 2015, dated 2019)

How the values were obtained:
[1] = Encapsulation efficiency of RNA (QUANT-IT RIBOGREEN RNA assay); type: physicochemical; settings: for encapsulation efficiency, rank within the named table (in words): comparison amongst compositions
Outline: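 RiboGreen fluorescence (ex ~480, em ~520 nm) measured after 15 min at 37 °C on samples at ~5 μg/mL in TE, pH 7.5, ± 2% Triton X-100 solution. After blank subtraction, free RNA is given as intact-sample signal divided by disrupted-sample signal.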

[2] = Particle size and polydispersity index of nanoparticle compositions (Zetasizer Nano ZS); type: physicochemical; settings: for particle size, rank within the named table (in words): comparison amongst compositions
Outline: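 Measured in 1×PBS by Zetasizer Nano ZS.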

[3] = system: modified luciferase expression; experiment: Expression of Luc in different organs (liver, lung, spleen, femur) 6 hours after intravenous administration; type: in vivo; settings: i.v., 0.5 mpk
Protocol: The efficacy of the nanoparticle compositions presented in Tables 1, 1a, 17-1, 19-1, 20-1 and 21-1 was further evaluated by measuring the expression of modified luciferase in the liver, lung, spleen, and femur upon administration of a given composition. Formulations were administered intravenously to mice (n=3) at a dosage of 0.5 mpk and bioluminescence measured after 6 hours. The standard MC3 formulation and a PBS control were also tested.

IP-10 = experiment: Cytokine production induced by sample formulations: IP-10; type: in vivo; settings: mice, i.v., 0.5 mpk, 6 hours; for IP-10: in pg/mL (unit assumed)
Outline: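 Cytokine levels were quantified at 6 hours in mice given the nanoparticle compositions i.v. at 0.5 mpk. MC3 standard formulation and PBS served as comparators.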

[4] = pKa of nanoparticle compositions; type: physicochemical
[5] = system: luciferase (Luc) mRNA expression; experiment: Expression of Luc induced by sample formulations, whole-body bioluminescence after intravenous administration; type: in vivo; settings: mice, i.v., 0.5 mg/kg
Outline: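 Read-out is whole-body bioluminescence at 3, 6 and 24 h after a single intravenous dose of 0.5 mg/kg Luc mRNA in nanoparticle formulations. Groups of n=6 mice; PBS and standard MC3 formulation as references.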

IL-6 = experiment: Cytokine production induced by sample formulations: IL-6; type: in vivo; settings: mice, i.v., 0.5 mpk, 6 hours; for IL-6: in pg/mL (unit assumed)
From the text: The introduction of foreign material into a mammalian body induces an innate immune response that promotes cytokine production. Such immune responses to, for example, nanoparticle compositions including therapeutic and/or prophylactic agents, are undesirable. The induction of certain cytokines is thus measured to evaluate the […] of nanoparticle compositions. The concentrations of various cytokines in mice upon intravenous administration of nanoparticle compositions presented in Tables 1, 1a, 17-1, 19-1, 20-1 and 21-1 at a dosage of 0.5 mpk was measured at 6 hours. The standard MC3 formulation and a PBS control were also tested.

[6] = Table 20-1, rows without footnote mark
[7] = Table 1, rows without footnote mark
[8] = Table 1, * lipid:DSPC:Chol:PEG-DMG 50:10:38.5:1.5

EE (%) ([1]; Table 17-1) | PDI ([2]; Table 17-1) | Size (nm) ([2]; Table 17-1) | particle size, rank within the named table (in words) [2] | IP-10 (IP-10; Table 17-4) | pKa ([4]; Table 17-1) | IL-6 (IL-6; Table 17-4) | EE (%) [1, 6] [%] | PDI [2, 6] | Size (nm) [2, 6] [nm] | IP-10 (IP-10; Table 20-4, formula (20-I)) | Compound | Total Flux Liver ([3]; Table 17-3, mice) | Total Flux Lung ([3]; Table 17-3, mice) | Total Flux Spleen ([3]; Table 17-3, mice, spleen) | Total Flux 3 hours ([5]; Table 17-2) | Total Flux 6 hours ([5]; Table 17-2) | Total Flux 24 hours ([5]; Table 17-2) | Total Flux Liver ([3]; Table 20-3, mice) | Total Flux Lung ([3]; Table 20-3, mice) | Total Flux Spleen ([3]; Table 20-3, mice, spleen) | further results
57.2 | 0.104 | 136.9 | largest particles | 72.8 | 6.92 | 9.88 |  |  |  |  | CCCCC/C=C\C/C=C\CCCCCCCCN(CCO)CCCCCC [Compound 17-2, 2-(Hexyl((9Z,12Z)-octadeca-9,12-dien-1-yl)amino)ethan-1-ol] | 6.42E+04 | 1.96E+04 | 4.16E+04 | 2.83E+05 | 3.76E+05 | 2.64E+05 |  |  |  | encapsulation efficiency, rank within the named table (in words) [1]: did not encapsulate RNA with high efficiency; IP-10 induction, rank or comparison with IL-6 (in words) (IP-10): lowest IP-10 levels; IL-6 induction, rank within the named table (in words) (IL-6): lowest IL-6 levels
95.6 | 0.110 | 68.5 | smallest particles | 100 | 5.68 | 49.9 |  |  |  |  | CCCCCCCCCCCCCCN(CCO)CCCCCCCCCCCCCC [Compound 17-7, 2-(Ditetradecylamino)ethan-1-ol] | 7.44E+04 | 1.35E+04 | 3.46E+04 | 4.68E+05 | 6.82E+05 | 5.46E+05 |  |  |  | 
 |  |  | largest particles |  |  |  | 82.3 | 0.217 | 147.1 | 3864.5 | CCCCCCCCCCCCCCN(CCO)CCN(CCCCCCCCCCCCCC)CCCCCCCCCCCCCC [Compound 20-12, 2-((2-(Ditetradecylamino)ethyl)(tetradecyl)amino)ethan-1-ol] |  |  |  |  |  |  | 3.08E+08 | 3.58E+06 | 6.15E+07 | Total Flux Femur ([3]; Table 20-3, mice): 1.37E+06; pKa [4, 6]: 6.58; Total Flux 3 hours ([5]; Table 20-2): 1.57E+09; Total Flux 6 hours ([5]; Table 20-2): 1.84E+09; Total Flux 24 hours ([5]; Table 20-2): 1.24E+08; IL-6 (IL-6; Table 20-4, formula (20-I)): 445.7
 |  |  |  |  |  |  | 95.3 | 0.146 | 73.8 | 810.6 | CCCCCCCCCCCCN(CCCCO)CCN(CCCCCCCCCCCC)CCCCCCCCCCCC [Compound 20-22, 4-((2-(Didodecylamino)ethyl)(dodecyl)amino)butan-1-ol] |  |  |  |  |  |  | 2.88E+08 | 5.04E+05 | 1.65E+06 | pKa [4, 6]: 5.90; Total Flux 3 hours ([5]; Table 20-2): 4.00E+09; Total Flux 6 hours ([5]; Table 20-2): 3.01E+09; Total Flux 24 hours ([5]; Table 20-2): 2.20E+08; IL-6 (IL-6; Table 20-4, formula (20-I)): 118.6
 |  |  |  |  |  |  |  |  |  |  | CCCCCCCCCCCCCCN(CCCCCCCCCCCCCC)CCN(CCCCCCCCCCCCCC)CCN1CCN(CCN(CCCCCCCCCCCCCC)CCCCCCCCCCCCCC)CC1 [Compound 32, N^1-(2-(4-(2-(Ditetradecylamino)ethyl)piperazin-1-yl)ethyl)-N^1,N^2,N^2-tritetradecylethane-1,2-diamine] |  |  |  |  |  |  |  |  |  | EE (%) [1, 7]: 83.6%; PDI [2, 7]: 0.160; Size (nm) ([2]; Table 1, rows without footnote mark (lipid:DOPE:cholesterol:PEG-DMG 40:20:38.5:1.5, Luc mRNA; MC3 standard formulation)): 79.3 nm; Total Flux Femur ([3]; Table 3, mice): 1.02E+05; Total Flux Liver ([3]; Table 3, mice): 8.36E+07; Total Flux Lung ([3]; Table 3, mice): 6.75E+05; Total Flux Spleen ([3]; Table 3, mice, spleen): 9.38E+05; IP-10 (IP-10; Table 4): 727; pKa [4, 7]: 6.28; Total Flux 3 hours ([5]; Table 2): 6.85E+08; Total Flux 6 hours ([5]; Table 2): 5.88E+08; Total Flux 24 hours ([5]; Table 2): 4.37E+07; IL-6 (IL-6; Table 4): 174
94.5 | 0.154 | 95.6 |  | 560 | 6.34 | 80.7 |  |  |  |  | CCCCC/C=C\C/C=C\CCCCCCCCN(CCO)CCCCCCCCCCCC [Compound 17-4, 2-(Dodecyl((9Z,12Z)-octadeca-9,12-dien-1-yl)amino)ethan-1-ol] | 8.00E+07 | 1.95E+05 | 2.30E+06 | 1.22E+09 | 3.60E+08 | 6.05E+07 |  |  |  | total flux in the spleen, rank within the named table (in words) ([3]; mice, spleen): highest; IP-10 induction, rank or comparison with IL-6 (in words) (IP-10): highest IL-6 and IP-10 levels; total flux / Luc expression, rank within the named table (in words) ([5]; each time point): substantially higher flux than compositions including Compounds 17-2, 17-3, and 17-7; IL-6 induction, rank within the named table (in words) (IL-6): highest IL-6 and IP-10 levels
89.22 | 0.176 | 90.4 |  | 222 | 6.89 | 84.3 |  |  |  |  | CCCCCCCCCCCCN(CCCCO)CCCCCCCCCCCC [Compound 17-13, 4-(Didodecylamino)butan-1-ol] | 3.56E+05 | 4.66E+04 | 1.90E+05 | 1.10E+06 | 1.80E+06 | 7.95E+05 |  |  |  | 
 |  |  |  |  |  |  | 95.3 | 0.080 | 88.1 | 457.8 | CCCCC/C=C\CCCCCN(CCO)CCN(CCCCCCCCCCCC)CCCCCCCCCCCC [Compound 20-23, (Z)-2-((2-(Didodecylamino)ethyl)(dodec-6-en-1-yl)amino)ethan-1-ol] |  |  |  |  |  |  | 3.06E+08 | 1.28E+06 | 4.19E+06 | Total Flux Femur ([3]; Table 20-3, mice): 5.10E+05; pKa [4, 6]: 6.56; Total Flux 3 hours ([5]; Table 20-2): 1.91E+09; Total Flux 6 hours ([5]; Table 20-2): 1.42E+09; Total Flux 24 hours ([5]; Table 20-2): 1.13E+08; IL-6 (IL-6; Table 20-4, formula (20-I)): 236.4
 |  |  |  |  |  |  |  |  |  |  | CCCCC/C=C\C/C=C\CCCCCCCCN(CCCCCCCC/C=C\C/C=C\CCCCC)CCN(CCCCCCCC/C=C\C/C=C\CCCCC)CCN1CCNCC1 [Compound 41, N^1,N^1,N^2-Tri((9Z,12Z)-octadeca-9,12-dien-1-yl)-N^2-(2-(piperazin-1-yl)ethyl)ethane-1,2-diamine] |  |  |  |  |  |  |  |  |  | EE (%) [1, 8]: 99.9%; encapsulation efficiency, rank within the named table (in words) [1]: highest; Size (nm) ([2]; Table 1, * formulated with lipid:DSPC:Chol:PEG-DMG 50:10:38.5:1.5): 69.0 nm; PDI [2, 8]: 0.239; Total Flux Liver ([3]; Table 3, mice): 3.00E+06; Total Flux Lung ([3]; Table 3, mice): 1.34E+05; Total Flux Spleen ([3]; Table 3, mice, spleen): 2.13E+06; IP-10 (IP-10; Table 4): 350; pKa [4, 8]: 7.02; Total Flux 3 hours ([5]; Table 2): 4.06E+07; Total Flux 6 hours ([5]; Table 2): 2.04E+07; Total Flux 24 hours ([5]; Table 2): 6.05E+07; IL-6 (IL-6; Table 4): 116
